In PMC3274775 (ACS medicinal chemistry letters, 2011):
Entries after “also recorded” stand apart in the source; their conditions may differ. Like-named read-outs stand apart in the source and are kept apart here.

Key:
[1] = Stability in pooled human liver microsomes; format: in vitro ADME
CYP3A4 = CYP3A4 (Homo sapiens, UniProt P08684); experiment: CYP inhibition/activation in pooled human liver microsomes; format: in vitro ADME
CYP2C8 = molecular target: T1, CYP2C8 (Homo sapiens, UniProt P10632); experiment: as above; format: in vitro ADME
T1 sequence (P10632 1-490): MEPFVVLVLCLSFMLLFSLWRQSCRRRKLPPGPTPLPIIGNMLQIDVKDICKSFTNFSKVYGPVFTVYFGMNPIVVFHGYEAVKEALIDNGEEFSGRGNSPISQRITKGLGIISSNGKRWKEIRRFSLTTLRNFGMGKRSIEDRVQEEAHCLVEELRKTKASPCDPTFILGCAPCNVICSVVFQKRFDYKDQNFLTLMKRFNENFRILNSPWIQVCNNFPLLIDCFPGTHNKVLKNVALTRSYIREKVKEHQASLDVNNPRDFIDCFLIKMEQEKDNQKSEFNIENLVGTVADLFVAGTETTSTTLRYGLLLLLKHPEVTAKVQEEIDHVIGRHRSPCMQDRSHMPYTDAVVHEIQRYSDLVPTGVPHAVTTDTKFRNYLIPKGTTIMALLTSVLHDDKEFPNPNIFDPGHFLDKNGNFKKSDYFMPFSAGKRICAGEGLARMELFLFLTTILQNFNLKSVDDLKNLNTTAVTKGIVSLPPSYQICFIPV

UGT 1A1 [2] = molecular target: T2, UGT 1A1 (Homo sapiens, UniProt P22309); experiment: UGT substrate assay
T2 sequence (P22309 26-533): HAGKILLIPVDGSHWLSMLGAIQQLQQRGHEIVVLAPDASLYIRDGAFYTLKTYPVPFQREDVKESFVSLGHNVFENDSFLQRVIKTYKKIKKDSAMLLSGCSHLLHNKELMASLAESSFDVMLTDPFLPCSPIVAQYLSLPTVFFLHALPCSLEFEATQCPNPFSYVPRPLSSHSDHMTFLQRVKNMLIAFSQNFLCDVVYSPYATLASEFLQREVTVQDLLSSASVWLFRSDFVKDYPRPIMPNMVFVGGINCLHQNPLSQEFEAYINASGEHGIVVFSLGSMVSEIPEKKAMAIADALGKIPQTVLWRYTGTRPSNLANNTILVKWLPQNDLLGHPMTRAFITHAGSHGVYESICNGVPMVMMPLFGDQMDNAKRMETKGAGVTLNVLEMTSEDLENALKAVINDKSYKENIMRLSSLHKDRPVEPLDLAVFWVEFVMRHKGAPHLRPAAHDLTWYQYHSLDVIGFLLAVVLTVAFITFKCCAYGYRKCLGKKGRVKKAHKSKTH

HIV-1 = experiment: microbe, parasite or virus in culture; details: Human immunodeficiency virus 1, MAGI
CYP2D6 = CYP2D6 (Homo sapiens, UniProt P10635); experiment: CYP inhibition/activation in pooled human liver microsomes; format: in vitro ADME
Sequence of CYP2D6 (P10635 whole entry): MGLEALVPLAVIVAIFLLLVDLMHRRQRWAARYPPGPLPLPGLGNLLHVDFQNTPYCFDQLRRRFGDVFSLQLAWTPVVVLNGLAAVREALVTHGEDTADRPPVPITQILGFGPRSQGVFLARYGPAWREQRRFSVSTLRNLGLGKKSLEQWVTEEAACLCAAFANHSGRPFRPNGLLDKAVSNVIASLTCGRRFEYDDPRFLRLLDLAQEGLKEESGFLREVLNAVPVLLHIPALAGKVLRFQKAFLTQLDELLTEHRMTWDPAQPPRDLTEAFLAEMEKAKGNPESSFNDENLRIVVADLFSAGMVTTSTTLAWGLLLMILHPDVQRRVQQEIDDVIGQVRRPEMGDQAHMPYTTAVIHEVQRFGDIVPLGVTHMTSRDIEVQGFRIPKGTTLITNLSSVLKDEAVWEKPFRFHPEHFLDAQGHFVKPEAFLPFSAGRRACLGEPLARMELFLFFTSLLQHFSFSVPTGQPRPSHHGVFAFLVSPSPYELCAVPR

UGT 1A4 = molecular target: T3, UGT 1A4 (Homo sapiens, UniProt P22310); experiment: UGT substrate assay
T3 sequence (P22310 29-534): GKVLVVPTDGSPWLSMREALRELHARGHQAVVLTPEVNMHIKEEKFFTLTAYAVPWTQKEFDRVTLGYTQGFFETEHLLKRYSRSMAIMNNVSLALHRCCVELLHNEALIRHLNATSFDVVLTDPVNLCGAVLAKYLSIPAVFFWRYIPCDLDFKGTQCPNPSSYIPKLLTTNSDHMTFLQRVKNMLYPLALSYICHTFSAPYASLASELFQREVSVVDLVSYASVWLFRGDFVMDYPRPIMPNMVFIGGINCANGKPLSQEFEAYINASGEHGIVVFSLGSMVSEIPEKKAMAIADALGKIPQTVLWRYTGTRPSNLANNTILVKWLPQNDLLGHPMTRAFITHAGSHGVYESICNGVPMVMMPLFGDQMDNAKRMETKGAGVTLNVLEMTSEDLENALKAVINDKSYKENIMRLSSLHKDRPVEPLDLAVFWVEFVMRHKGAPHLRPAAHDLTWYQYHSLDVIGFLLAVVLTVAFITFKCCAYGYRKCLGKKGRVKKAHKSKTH

UGT 1A9 = molecular target: T4, UGT 1A9 (Homo sapiens, UniProt O60656); experiment: UGT substrate assay
T4 sequence (O60656 26-530): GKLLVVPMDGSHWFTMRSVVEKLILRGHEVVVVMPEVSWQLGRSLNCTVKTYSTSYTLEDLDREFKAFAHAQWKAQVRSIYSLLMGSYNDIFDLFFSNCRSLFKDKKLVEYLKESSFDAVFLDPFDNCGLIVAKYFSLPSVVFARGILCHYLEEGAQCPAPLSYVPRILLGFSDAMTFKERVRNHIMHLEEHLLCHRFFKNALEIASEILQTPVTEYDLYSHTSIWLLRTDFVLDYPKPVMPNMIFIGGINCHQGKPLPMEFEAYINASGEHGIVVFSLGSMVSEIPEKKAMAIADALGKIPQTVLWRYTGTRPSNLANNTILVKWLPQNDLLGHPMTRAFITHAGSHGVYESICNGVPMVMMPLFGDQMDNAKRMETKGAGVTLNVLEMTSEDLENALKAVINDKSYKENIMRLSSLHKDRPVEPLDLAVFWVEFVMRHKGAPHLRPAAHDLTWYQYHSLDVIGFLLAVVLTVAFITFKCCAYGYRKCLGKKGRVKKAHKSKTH

UGT 2B7 = molecular target: T5, UGT 2B7 (Homo sapiens, UniProt P16662); experiment: UGT substrate assay
T5 sequence (P16662 24-529): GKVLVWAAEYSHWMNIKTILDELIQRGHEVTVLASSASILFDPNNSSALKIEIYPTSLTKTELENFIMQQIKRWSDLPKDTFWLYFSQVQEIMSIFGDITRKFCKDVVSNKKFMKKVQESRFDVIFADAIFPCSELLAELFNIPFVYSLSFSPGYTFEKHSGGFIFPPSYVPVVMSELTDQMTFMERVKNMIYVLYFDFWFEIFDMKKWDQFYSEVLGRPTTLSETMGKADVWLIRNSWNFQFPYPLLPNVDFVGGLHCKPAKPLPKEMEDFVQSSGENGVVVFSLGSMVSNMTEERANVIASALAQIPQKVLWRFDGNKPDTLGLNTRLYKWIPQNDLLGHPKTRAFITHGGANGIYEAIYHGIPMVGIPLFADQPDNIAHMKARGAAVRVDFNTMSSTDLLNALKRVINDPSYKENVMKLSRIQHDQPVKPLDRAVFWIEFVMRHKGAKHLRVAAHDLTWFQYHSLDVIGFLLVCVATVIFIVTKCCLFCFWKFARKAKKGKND

UGT 1A6 = molecular target: T6, UGT 1A6 (Homo sapiens, UniProt P19224); experiment: UGT substrate assay
T6 sequence (P19224 27-532): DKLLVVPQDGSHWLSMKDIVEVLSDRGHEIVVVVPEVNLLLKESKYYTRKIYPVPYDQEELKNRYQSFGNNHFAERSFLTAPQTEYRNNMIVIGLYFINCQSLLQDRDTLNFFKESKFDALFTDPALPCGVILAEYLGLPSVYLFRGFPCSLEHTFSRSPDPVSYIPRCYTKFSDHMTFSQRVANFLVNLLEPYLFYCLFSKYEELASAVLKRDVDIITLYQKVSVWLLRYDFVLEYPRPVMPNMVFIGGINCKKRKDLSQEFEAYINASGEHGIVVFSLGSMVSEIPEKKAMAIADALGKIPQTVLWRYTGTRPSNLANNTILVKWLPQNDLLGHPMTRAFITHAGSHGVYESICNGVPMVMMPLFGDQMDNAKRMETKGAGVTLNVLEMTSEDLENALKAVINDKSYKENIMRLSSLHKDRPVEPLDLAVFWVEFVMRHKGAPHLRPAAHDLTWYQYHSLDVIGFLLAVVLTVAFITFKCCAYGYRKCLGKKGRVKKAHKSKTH

HIV-1 integrase = HIV-1 integrase (Human immunodeficiency virus type 1 group M subtype B, UniProt P04585); experiment: Inhibition of the strand transfer; format: biochemical
UGT 1A1 [3] = molecular target: T2, UGT 1A1; details: cited from earlier work

Sequence of CYP3A4 (P08684 whole entry): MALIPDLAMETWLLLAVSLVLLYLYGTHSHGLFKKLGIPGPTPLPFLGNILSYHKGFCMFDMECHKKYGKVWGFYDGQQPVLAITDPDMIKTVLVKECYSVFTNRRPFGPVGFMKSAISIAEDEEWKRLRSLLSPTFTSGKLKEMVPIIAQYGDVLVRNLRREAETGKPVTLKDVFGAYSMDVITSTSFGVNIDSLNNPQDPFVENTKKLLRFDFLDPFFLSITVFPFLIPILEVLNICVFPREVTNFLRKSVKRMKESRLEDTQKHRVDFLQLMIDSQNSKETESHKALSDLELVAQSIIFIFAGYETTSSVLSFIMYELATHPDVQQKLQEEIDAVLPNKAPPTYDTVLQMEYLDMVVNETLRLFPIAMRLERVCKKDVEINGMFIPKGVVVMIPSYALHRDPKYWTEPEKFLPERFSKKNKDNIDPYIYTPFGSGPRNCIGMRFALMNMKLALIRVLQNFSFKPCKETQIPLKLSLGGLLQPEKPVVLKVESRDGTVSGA

O=C(O)/C(O)=C/C(=O)c1cc(Cc2ccc(F)cc2F)cn(Cc2ccccc2F)c1=O [Compound 2, 4-(5-(2,4-difluorobenzyl)-1-(2-fluoro-benzyl)-2-oxo-1,2-dihydro-pyridin-3-yl)-2-hydroxy-4-oxobut-2-enoic acid]
stability in pooled human liver microsomes [1]: good stability; also recorded: relatively stable | activation of CYP3A4 (CYP3A4): did not exhibit any activation | inhibition of CYP3A4 (CYP3A4): not an inhibitor | activation of CYP2C8 (CYP2C8): did not exhibit any activation | substrate activity towards UGT 1A1 (UGT 1A1 [2]): not a substrate | EC50 (HIV-1; read-out: anti-HIV-1 EC50): ≤ 500 nM | activation of CYP2D6 (CYP2D6): did not exhibit any activation | inhibition of CYP2D6 (CYP2D6): not an inhibitor | substrate activity towards UGT 1A4 (UGT 1A4): not a substrate | substrate activity towards UGT 1A9 (UGT 1A9): not a substrate | substrate activity towards UGT 2B7 (UGT 2B7): not a substrate | substrate activity towards UGT 1A6 (UGT 1A6): not a substrate

CC(C)OC(=O)/C(O)=C/C(=O)c1cc(Cc2ccc(F)cc2F)cn(Cc2ccccc2F)c1=O [Compound 10]
conversion to compound 2 by hydrolysis in human liver microsomes ([1]; in 15 minutes): 100% | IC50 (HIV-1 integrase): > 475 nM

O=C(O)C(=O)C=C(O)c1cc(Cc2ccc(F)cc2F)cn(Cc2ccc(F)cc2F)c1=O [Entry 11, 4-(1,5-bis(2,4-difluorobenzyl)-2-oxo-1,2-dihydropyridin-3-yl)-4-hydroxy-2-oxobut-3-enoic acid]
IC50 (HIV-1 integrase): 5.5 ± 1.5 nM | EC50 (HIV-1): 300 nM | EC50 (HIV-1; read-out: anti-HIV-1 EC50): ≤ 500 nM

C[C@@H]1CCO[C@H]2Cn3cc(C(=O)NCc4ccc(F)cc4F)c(=O)c(O)c3C(=O)N12 [S/GSK 1349572]
substrate activity towards UGT 1A1 (UGT 1A1 [3]; primary route of metabolism and clearance is glucuronidation): substrate for UGT 1A1

Cc1nnc(C(=O)NC(C)(C)c2nc(C(=O)NCc3ccc(F)cc3)c(O)c(=O)n2C)o1 [raltegravir, reference compound]
major mechanism of clearance in humans (UGT 1A1 [3]; humans): UGT 1A1-mediated glucuronidation | EC50 (HIV-1; read-out: anti-HIV-1 EC50): < 6 nM
